Measured values as given in ChEMBL document CHEMBL1697781, “Assessment of the health effects of chemicals in humans: II. Construction of an adverse effects database for QSAR modeling” (Curr Drug Discov Technol, 2004).

Key:
Conditions in all cases: human; call rule not given here
Hepatotoxicity [1] = assay: FDA HLAED, liver enzyme composite activity
Hepatotoxicity [2] = assay: FDA HLAED, alkaline phosphatase increase
Hepatotoxicity [3] = assay: FDA HLAED, serum glutamic oxaloacetic transaminase (SGOT) increase
Hepatotoxicity [4] = assay: FDA HLAED, serum glutamic pyruvic transaminase (SGPT) increase
Hepatotoxicity [5] = assay: FDA HLAED, lactate dehydrogenase (LDH) increase
Hepatotoxicity [6] = assay: FDA HLAED, gamma-glutamyl transferase (GGT) increase
Throughout, for GGT Increase - Index Value: reference of the scale not given here.
Throughout, for LDH Increase - Index Value: reference of the scale not given here.

SMILES	Composite Activity - Active (Hepatotoxicity [1])	Composite Activity - Marginal (Hepatotoxicity [1])	Composite Activity - Score (Hepatotoxicity [1])	Alkaline Phosphatase Increase - Activity Score (Hepatotoxicity [2])	Alkaline Phosphatase Increase - Index Value (Hepatotoxicity [2])	Alkaline Phosphatase Increase - Number of Reports (Hepatotoxicity [2])	SGOT Increase - Activity Score (Hepatotoxicity [3])	SGOT Increase - Index Value (Hepatotoxicity [3])	SGOT Increase - Number of Reports (Hepatotoxicity [3])	SGPT Increase - Activity Score (Hepatotoxicity [4])	SGPT Increase - Index Value (Hepatotoxicity [4])	SGPT Increase - Number of Reports (Hepatotoxicity [4])	LDH Increase - Activity Score (Hepatotoxicity [5])	LDH Increase - Index Value (Hepatotoxicity [5])	LDH Increase - Number of Reports (Hepatotoxicity [5])	GGT Increase - Activity Score (Hepatotoxicity [6])	GGT Increase - Index Value (Hepatotoxicity [6])	GGT Increase - Number of Reports (Hepatotoxicity [6])
CC(=O)CCCCn1c(=O)c2c(ncn2C)n(C)c1=O [PENTOXIFYLLINE]	0	0	Inactive	Inactive	1	>= 4	Inactive	0.9	>= 4	Inactive	0.3	< 4	Inactive	0.6	>= 4	Inactive	0	< 4
CCCN1C[C@H](CSC)C[C@@H]2c3cccc4[nH]cc(c34)C[C@H]21 [PERGOLIDE]	0	0	Inactive	Inactive	1.3	< 4	Inactive	3.9	< 4	Inactive	3.9	< 4	Inactive	0	< 4	Inactive	0	< 4
CC1(C)C(C=C(Cl)Cl)C1C(=O)OCc1cccc(Oc2ccccc2)c1 (stereo unspecified) [PERMETHRIN]	0	0	Inactive	Inactive	0	< 4	Inactive	0	< 4	Inactive	0	< 4	Inactive	0	< 4	Inactive	0	< 4
CC[C@@H]1C(=O)OC[C@@H]1Cc1cncn1C [PILOCARPINE]	0	0	Inactive	Inactive	0	< 4	Inactive	4.6	< 4	Inactive	4.6	< 4	Inactive	0	< 4	Inactive	0	< 4
O=c1[nH]c2ccccc2n1C1CCN(CCCC(c2ccc(F)cc2)c2ccc(F)cc2)CC1 [PIMOZIDE]	0	0	Inactive	Inactive	17.6	< 4	Inactive	0	< 4	Inactive	17.6	< 4	Inactive	0	< 4	Inactive	17.6	< 4
CC(C)NCC(O)COc1cccc2[nH]ccc12 (stereo unspecified) [PINDOLOL]	0	0	Inactive	Inactive	1	< 4	Inactive	2.6	>= 4	Inactive	2.6	>= 4	Inactive	0.7	< 4	Inactive	0	< 4
CC(=O)O[C@H]1C[C@@H]2CC[C@@H]3[C@H](CC[C@@]4(C)[C@H]3C[C@H](N3CC[N+](C)(C)CC3)[C@@H]4OC(C)=O)[C@@]2(C)C[C@@H]1N1CC[N+](C)(C)CC1.[Br-].[Br-] [PIPECURONIUM BROMIDE]	0	0	Inactive	Inactive	0	< 4	Inactive	0	< 4	Inactive	0	< 4	Inactive	0	< 4	Inactive	0	< 4
